Source: US8778888B2, “Cystine knot peptides binding to alpha IIb beta 3 integrins and methods of use” (The Board of Trustees of the Leland Stanford Junior …, priority 2009, dated 2014)

Target: T1, αIIbβ3 integrin (K562-αIIbβ3 cells) (Homo sapiens, UniProt P05106+P08514)
T1 construct: expressed in transfected cells; host or cells: K562 leukemia cells (from S. Blystone)
Test: Cell binding assay on K562-αIIbβ3 cells (flow cytometry)
Conditions: K562-αIIbβ3 versus K562-αvβ3 cells
Protocol: K562 cells stably expressing αIIbβ3, αvβ3, or αvβ5 were obtained from S. Blystone and maintained in IMDM media (Gibco) containing 10% FBS and 1.0 mg/mL geneticin. For binding assays, 10^5 cells were suspended in IBB, and varying concentrations of AgRP peptides were added. After 3 hour incubation at 4° C., the cells were centrifuged, aspirated, and resuspended in ice-cold BPBS containing a 1:20 dilution of fluorescein-conjugated goat anti-His antibody (Bethyl) for […]. The cells were then centrifuged, aspirated, and stored as pellets on ice until analysis by flow cytometry using a BD FACS Caliber instrument Becton Dickinson. Binding data was analyzed with FlowJo (Treestar, Inc.) and data was fit to sigmoidal plots using Kaleidagraph (Synergy Software) to calculate equilibrium dissociation constants. Experiments were performed at least 3 times and data are presented as average values with standard deviations.
To determine the integrin binding affinities and specificities of the engineered AgRP peptides, direct binding assays were performed using K562 leukemia cells that have been transfected to stably express different integrin receptors See J. Cell Biol. 127(4) (1994). Cells were incubated in the presence of varying concentrations of AgRP peptides at 4° C., to minimize receptor internalization, followed by staining with a fluorescein-conjugated anti-hexahistidine antibody and analysis by flow cytometry. Equilibrium dissociation constants (KD values) were determined by plotting AgRP peptide concentration (log scale) versus normalized mean fluorescence intensity, then fitting the data to a sigmoidal curve.

T1 sequence (P08514 32-887 limits assumed): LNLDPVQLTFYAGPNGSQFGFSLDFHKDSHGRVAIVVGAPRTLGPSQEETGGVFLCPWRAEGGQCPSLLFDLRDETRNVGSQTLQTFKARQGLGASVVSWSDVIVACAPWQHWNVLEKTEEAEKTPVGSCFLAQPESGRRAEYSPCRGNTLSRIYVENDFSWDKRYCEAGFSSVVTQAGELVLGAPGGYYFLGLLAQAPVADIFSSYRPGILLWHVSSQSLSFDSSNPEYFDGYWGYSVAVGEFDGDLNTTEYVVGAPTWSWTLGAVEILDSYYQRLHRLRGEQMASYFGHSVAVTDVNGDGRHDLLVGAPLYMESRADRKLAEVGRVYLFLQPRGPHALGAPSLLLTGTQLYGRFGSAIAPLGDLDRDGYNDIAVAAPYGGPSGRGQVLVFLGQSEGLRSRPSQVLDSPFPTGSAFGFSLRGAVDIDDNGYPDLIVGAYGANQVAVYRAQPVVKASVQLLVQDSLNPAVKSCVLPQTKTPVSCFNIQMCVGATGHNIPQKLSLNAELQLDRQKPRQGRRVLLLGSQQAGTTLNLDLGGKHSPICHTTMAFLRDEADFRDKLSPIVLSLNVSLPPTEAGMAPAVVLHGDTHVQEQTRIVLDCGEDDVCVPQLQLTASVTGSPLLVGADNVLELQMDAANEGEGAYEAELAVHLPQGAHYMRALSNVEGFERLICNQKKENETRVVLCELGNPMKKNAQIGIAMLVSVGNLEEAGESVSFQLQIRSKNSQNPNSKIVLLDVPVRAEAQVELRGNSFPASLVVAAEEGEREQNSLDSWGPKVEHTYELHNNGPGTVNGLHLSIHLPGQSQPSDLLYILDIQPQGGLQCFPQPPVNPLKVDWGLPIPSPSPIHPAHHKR
T1 sequence (P08514 891-1039 partner limits assumed): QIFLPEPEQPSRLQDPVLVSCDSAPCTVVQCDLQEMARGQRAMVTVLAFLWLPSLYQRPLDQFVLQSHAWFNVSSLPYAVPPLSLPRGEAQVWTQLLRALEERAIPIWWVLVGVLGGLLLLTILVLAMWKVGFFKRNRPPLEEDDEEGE
T1 sequence (P05106 27-788): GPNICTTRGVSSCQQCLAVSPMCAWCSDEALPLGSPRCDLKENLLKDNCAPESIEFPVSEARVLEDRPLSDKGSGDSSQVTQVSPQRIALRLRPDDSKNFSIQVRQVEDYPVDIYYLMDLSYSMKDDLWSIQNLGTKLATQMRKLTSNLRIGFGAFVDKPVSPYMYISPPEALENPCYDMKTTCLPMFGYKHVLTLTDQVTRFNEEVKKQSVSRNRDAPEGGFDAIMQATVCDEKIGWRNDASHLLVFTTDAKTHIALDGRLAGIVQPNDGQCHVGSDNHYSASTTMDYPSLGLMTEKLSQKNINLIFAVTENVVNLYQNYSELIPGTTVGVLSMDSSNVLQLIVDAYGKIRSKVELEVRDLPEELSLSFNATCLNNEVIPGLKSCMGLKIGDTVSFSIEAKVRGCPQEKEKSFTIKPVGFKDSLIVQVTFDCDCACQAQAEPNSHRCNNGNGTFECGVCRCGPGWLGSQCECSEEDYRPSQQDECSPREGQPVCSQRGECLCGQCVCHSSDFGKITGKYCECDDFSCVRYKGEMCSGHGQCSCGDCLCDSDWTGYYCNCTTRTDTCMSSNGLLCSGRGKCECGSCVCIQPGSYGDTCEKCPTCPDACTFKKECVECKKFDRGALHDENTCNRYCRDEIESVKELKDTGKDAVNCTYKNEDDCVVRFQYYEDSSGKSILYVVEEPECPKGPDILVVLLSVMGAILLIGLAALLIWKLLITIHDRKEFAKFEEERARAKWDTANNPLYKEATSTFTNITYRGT

In the case of `CC(C)C[C@@H]1NC(=O)[C@@H]2CSSC[C@@H]3NC(=O)[C@H]([C@@H](C)O)NC(=O)[C@H](C)NC(=O)[C@H](C)NC(=O)[C@@H]4CCCN4C(=O)[C@H](CC(=O)O)NC(=O)[C@H](CSSC[C@H](NC(=O)CNC(=O)[C@H](CCCNC(=N)N)NC(=O)[C@@H]4CCCN4C(=O)[C@H](CCCCN)NC(=O)[C@H](CC(=O)O)NC(=O)[C@H](CC(=O)O)NC(=O)[C@H](CC(=O)O)NC(=O)[C@H](CC(=O)O)NC(=O)[C@H](CCCCN)NC(=O)[C@H](Cc4ccc(O)cc4)NC(=O)[C@H](CC(=O)O)NC(=O)[C@@H](NC(=O)[C@@H](N)Cc4ccc(O)cc4)C(C)C)C(=O)N[C@@H](C(C)C)C(=O)N[C@@H](CCCNC(=N)N)C(=O)N[C@@H](CC(C)C)C(=O)N[C@@H](Cc4c[nH]cn4)C(=O)N[C@@H](CCC(=O)O)C(=O)N[C@@H](CO)C(=O)N2)NC(=O)[C@H](CSSC[C@@H](C(=O)N[C@@H](CCCNC(=N)N)C(=O)N[C@H](C(=O)N[C@@H](CCCNC(=N)N)C(=O)N[C@@H](Cc2c[nH]cn2)C(=O)N[C@@H](Cc2c[nH]cn2)C(=O)N[C@@H](Cc2c[nH]cn2)C(=O)N[C@@H](Cc2c[nH]cn2)C(=O)N[C@@H](Cc2c[nH]cn2)C(=O)N[C@@H](Cc2c[nH]cn2)C(=O)O)[C@@H](C)O)NC(=O)[C@H](Cc2ccc(O)cc2)NC(=O)[C@@H]2CSSC[C@H](NC(=O)[C@H](Cc4ccc(O)cc4)NC3=O)C(=O)N[C@@H](CC(C)C)C(=O)N[C@@H](CCCCN)C(=O)N[C@@H](CCCNC(=N)N)C(=O)NCC(=O)N[C@@H](CC(=O)O)C(=O)N[C@@H](Cc3c[nH]c4ccccc34)C(=O)N[C@@H](CCCCN)C(=O)NCC(=O)N[C@@H](CCCCN)C(=O)N2)NC(=O)[C@@H]2CCCN2C(=O)[C@H](C(C)C)NC(=O)[C@H](CCC(N)=O)NC(=O)[C@H](CCC(N)=O)NC(=O)CNC1=O` [Clone 2bA], the “integrin binding specificity on K562 cell lines” value (“integrin binding specificity” below) is reported as “bound K562-αIIbβ3 cells only”.

`CC(C)C[C@@H]1NC(=O)[C@@H]2CSSC[C@@H]3NC(=O)[C@H]([C@@H](C)O)NC(=O)[C@H](C)NC(=O)[C@H](C)NC(=O)[C@@H]4CCCN4C(=O)[C@H](CC(=O)O)NC(=O)[C@H](CSSC[C@H](NC(=O)CNC(=O)[C@H](CCCNC(=N)N)NC(=O)[C@@H]4CCCN4C(=O)[C@H](CCCCN)NC(=O)[C@H](CC(=O)O)NC(=O)[C@H](CC(=O)O)NC(=O)[C@H](CC(=O)O)NC(=O)[C@H](CC(=O)O)NC(=O)[C@H](CCCCN)NC(=O)[C@H](Cc4ccc(O)cc4)NC(=O)[C@H](CC(=O)O)NC(=O)[C@@H](NC(=O)[C@@H](N)Cc4ccc(O)cc4)C(C)C)C(=O)N[C@@H](C(C)C)C(=O)N[C@@H](CCCNC(=N)N)C(=O)N[C@@H](CC(C)C)C(=O)N[C@@H](Cc4c[nH]cn4)C(=O)N[C@@H](CCC(=O)O)C(=O)N[C@@H](CO)C(=O)N2)NC(=O)[C@H](CSSC[C@@H](C(=O)N[C@@H](CCCNC(=N)N)C(=O)N[C@H](C(=O)N[C@@H](CCCNC(=N)N)C(=O)N[C@@H](Cc2c[nH]cn2)C(=O)N[C@@H](Cc2c[nH]cn2)C(=O)N[C@@H](Cc2c[nH]cn2)C(=O)N[C@@H](Cc2c[nH]cn2)C(=O)N[C@@H](Cc2c[nH]cn2)C(=O)N[C@@H](Cc2c[nH]cn2)C(=O)O)[C@@H](C)O)NC(=O)[C@H](Cc2ccc(O)cc2)NC(=O)[C@@H]2CSSC[C@H](NC(=O)[C@H](Cc4ccc(O)cc4)NC3=O)C(=O)N[C@@H](CC(N)=O)C(=O)N[C@@H](CCCCN)C(=O)N[C@@H](CCCNC(=N)N)C(=O)NCC(=O)N[C@@H](CC(=O)O)C(=O)N[C@@H](Cc3c[nH]c4ccccc34)C(=O)N[C@@H](CCCNC(=N)N)C(=O)N[C@@H](CO)C(=O)N[C@@H](CCCCN)C(=O)N2)NC(=O)[C@@H]2CCCN2C(=O)[C@H](C(C)C)NC(=O)[C@H](CCC(N)=O)NC(=O)[C@H](CCC(N)=O)NC(=O)CNC1=O` [Clone 2bJ] was tested, and the “integrin binding specificity” value was “bound K562-αIIbβ3 cells only”.

For `CC(C)C[C@@H]1NC(=O)[C@@H]2CSSC[C@@H]3NC(=O)[C@H]([C@@H](C)O)NC(=O)[C@H](C)NC(=O)[C@H](C)NC(=O)[C@@H]4CCCN4C(=O)[C@H](CC(=O)O)NC(=O)[C@H](CSSC[C@H](NC(=O)CNC(=O)[C@H](CCCNC(=N)N)NC(=O)[C@@H]4CCCN4C(=O)[C@H](CCCCN)NC(=O)[C@H](CC(=O)O)NC(=O)[C@H](CC(=O)O)NC(=O)[C@H](CC(=O)O)NC(=O)[C@H](CC(=O)O)NC(=O)[C@H](CCCCN)NC(=O)[C@H](Cc4ccc(O)cc4)NC(=O)[C@H](CC(=O)O)NC(=O)[C@@H](NC(=O)[C@@H](N)Cc4ccc(O)cc4)C(C)C)C(=O)N[C@@H](C(C)C)C(=O)N[C@@H](CCCNC(=N)N)C(=O)N[C@@H](CC(C)C)C(=O)N[C@@H](Cc4c[nH]cn4)C(=O)N[C@@H](CCC(=O)O)C(=O)N[C@@H](CO)C(=O)N2)NC(=O)[C@H](CSSC[C@@H](C(=O)N[C@@H](CCCNC(=N)N)C(=O)N[C@H](C(=O)N[C@@H](CCCNC(=N)N)C(=O)N[C@@H](Cc2c[nH]cn2)C(=O)N[C@@H](Cc2c[nH]cn2)C(=O)N[C@@H](Cc2c[nH]cn2)C(=O)N[C@@H](Cc2c[nH]cn2)C(=O)N[C@@H](Cc2c[nH]cn2)C(=O)N[C@@H](Cc2c[nH]cn2)C(=O)O)[C@@H](C)O)NC(=O)[C@H](Cc2ccc(O)cc2)NC(=O)[C@@H]2CSSC[C@H](NC(=O)[C@H](Cc4ccc(O)cc4)NC3=O)C(=O)N[C@@H](CCCCN)C(=O)N[C@@H](CCCCN)C(=O)N[C@@H](CCCNC(=N)N)C(=O)NCC(=O)N[C@@H](CC(=O)O)C(=O)N[C@@H](Cc3c[nH]c4ccccc34)C(=O)N[C@@H](CCCCN)C(=O)N[C@@H](CCC(=O)O)C(=O)N[C@@H](CCCNC(=N)N)C(=O)N2)NC(=O)[C@@H]2CCCN2C(=O)[C@H](C(C)C)NC(=O)[C@H](CCC(N)=O)NC(=O)[C@H](CCC(N)=O)NC(=O)CNC1=O` [Clone 2bO], the “integrin binding specificity” value was “bound K562-αIIbβ3 cells only”.
